Assay results: ChEMBL document CHEMBL1142474, “Structure-activity relationship studies of imidazo[1,2-c]pyrimidine derivatives as potent and orally effective Syk family kinases inhibitors” (Bioorg Med Chem, 2008)
In brackets after ≈: the same amount, converted by molar mass. Activity calls are given as the source filed them. The calls are words filed in the database; no cut-off is given here.

Assays:
Blood = test: Inhibition of IL2 production in PHA-stimulated human whole blood after 24 hrs by ELISA
Mus musculus [1] = test: Suppression of concanavalin A-induced IL2 production in po dosed ICR mouse administered 1 hr before concanavalin A challenge relative to control
PBMC = test: Inhibition of IL2 production in PHA-stimulated human PBMC after 24 hrs by ELISA
[2] = Apparent permeability across human Caco-2 cells; format: ADME, cell-based
[3] = target: T1, Tyrosine-protein kinase ZAP-70 (Homo sapiens, UniProt P43403); test: Inhibition of human ZAP70 expressed in Sf9 cells
T1 sequence (P43403 whole entry): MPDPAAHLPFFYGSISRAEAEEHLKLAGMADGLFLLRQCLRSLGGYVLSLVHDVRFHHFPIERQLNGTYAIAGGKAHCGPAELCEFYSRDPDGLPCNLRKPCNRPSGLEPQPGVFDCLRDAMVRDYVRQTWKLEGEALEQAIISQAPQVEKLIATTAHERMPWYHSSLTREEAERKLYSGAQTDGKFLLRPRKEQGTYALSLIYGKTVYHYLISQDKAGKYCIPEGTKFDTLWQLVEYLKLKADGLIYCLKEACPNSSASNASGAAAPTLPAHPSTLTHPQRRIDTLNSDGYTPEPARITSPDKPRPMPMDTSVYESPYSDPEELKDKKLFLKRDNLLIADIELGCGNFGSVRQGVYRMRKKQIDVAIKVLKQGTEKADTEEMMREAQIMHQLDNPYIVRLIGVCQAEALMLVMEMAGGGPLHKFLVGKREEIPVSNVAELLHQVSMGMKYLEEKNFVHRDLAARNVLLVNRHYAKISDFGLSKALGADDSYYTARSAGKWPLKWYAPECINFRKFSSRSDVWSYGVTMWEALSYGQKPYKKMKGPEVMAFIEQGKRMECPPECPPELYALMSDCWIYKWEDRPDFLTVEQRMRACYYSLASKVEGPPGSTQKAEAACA

[4] = target: Tyrosine-protein kinase SYK (Homo sapiens, UniProt P43405)
Description: Inhibition of human Syk expressed in Sf9 cells

Mus musculus [5] = test: Plasma concentration in mouse at 100 mg/kg, po; format: ADME, organism-based; parameters: dose 100 mg/kg, route oral; conditions: in vivo
Mus musculus [6] = test: Plasma concentration in mouse at 10 mg/kg, po; format: ADME, organism-based; parameters: dose 10 mg/kg, route oral; conditions: in vivo
Mus musculus [7] = test: Plasma concentration in mouse at 30 mg/kg, po; format: ADME, organism-based; parameters: dose 30 mg/kg, route oral; conditions: in vivo
Mus musculus [8] = test: Suppression of anti-dinitrophenyl-coupled IgE-induced passive cutaneous anaphylaxis reaction in po dosed ICR mouse administered 1 hr before antigen challenge relative to control; format: functional, organism-based
Mus musculus [9] = test: Plasma concentration in mouse at 3 mg/kg, po; format: ADME, organism-based; parameters: dose 3 mg/kg, route oral; conditions: in vivo
[10] = Solubility in water; format: physicochemical

| SMILES | IC50 (Blood) [µM] | Papp [2] [×10⁻⁶ cm/s] | Activity (Mus musculus [1]) | IC50 (PBMC) [µM] | further results |
| --- | --- | --- | --- | --- | --- |
| COc1cc(Nc2nc(N[C@H]3CCCC[C@H]3N)n3ncnc3c2C(N)=O)cc(OC)c1 | 0.48 | 0.33 | inactive | 0.076 |  |
| COc1cc(Nc2nc(N[C@H]3CCCC[C@H]3N)n3cc(-c4ccccc4)nc3c2C(N)=O)cc(OC)c1 | 2 | 0.43 |  | 0.2 |  |
| COc1ccccc1Nc1nc(N[C@H]2CCCC[C@H]2N)n2ccnc2c1C(N)=O (relative stereo) |  |  |  |  | IC50 [3]: > 10 µM; IC50 [4]: > 10 µM |
| COc1cc(Nc2nc(N[C@H]3CCCC[C@H]3N)n3cnnc3c2C(N)=O)cc(OC)c1 | 0.44 | 0.01 | inactive | 0.046 | Cp (Mus musculus [5]): 45.2 ng/mL; Cp (Mus musculus [6]): 28.4 ng/mL; Cp (Mus musculus [7]): 26.5 ng/mL |
| CN[C@@H]1C[C@H]2O[C@@](C)([C@@H]1OC)n1c3ccccc3c3c4c(c5c6ccccc6n2c5c31)C(=O)NC4 [STAUROSPORINE] |  |  |  | 0.016 |  |
| NC(=O)c1c(Nc2cc(F)cc(F)c2)nc(N[C@H]2CCCC[C@H]2N)n2ccnc12 (relative stereo) | 3 |  |  | 0.15 |  |

Now from value to compound, other results behind:

| IC50 (Blood) [µM] | Papp [2] [×10⁻⁶ cm/s] | SMILES | Activity (Mus musculus [1]) | IC50 (PBMC) [µM] | further results |
| --- | --- | --- | --- | --- | --- |
| 1 |  | Cc1cc(C)cc(Nc2nc(N[C@H]3CCCC[C@H]3N)n3ccnc3c2C(N)=O)c1 (relative stereo) |  | 0.2 |  |
| 0.28 | 3.33 | COc1cc(Nc2nc(N[C@H]3CCCC[C@H]3N)n3ccnc3c2C(N)=O)cc(OC)c1 (relative stereo) | Dose-dependent effect | 0.058 | Cp (Mus musculus [5]): 4031 ng/mL; Activity (Mus musculus [8]): Dose-dependent effect; Cp (Mus musculus [9]): 40 ng/mL; Cp (Mus musculus [6]): 191 ng/mL; solubility [10]: 930 µg/mL (≈ 2190 µM); Cp (Mus musculus [7]): 770 ng/mL |
